# Experimental data from publication PMC3743924 (The Biochemical journal, 2013).
# What was measured:
# APH(3')-Ia [1] = biological target: T1, APH(3')-Ia (Escherichia coli, UniProt P00551); conditions: Ca2+ complex; nucleotide site
# APH(3')-Ia [2] = biological target: T1, APH(3')-Ia; assay: activity assay with kanamycin; format: biochemical; conditions: co-substrate kanamycin; constants unpublished
# APH(3')-Ia [3] = biological target: T1, APH(3')-Ia; assay: X-ray crystal structure, […]-2.[…] A; format: binding; conditions: ternary complex with kanamycin; ATP site; pH 4.5
# T1 sequence (P00551 whole entry): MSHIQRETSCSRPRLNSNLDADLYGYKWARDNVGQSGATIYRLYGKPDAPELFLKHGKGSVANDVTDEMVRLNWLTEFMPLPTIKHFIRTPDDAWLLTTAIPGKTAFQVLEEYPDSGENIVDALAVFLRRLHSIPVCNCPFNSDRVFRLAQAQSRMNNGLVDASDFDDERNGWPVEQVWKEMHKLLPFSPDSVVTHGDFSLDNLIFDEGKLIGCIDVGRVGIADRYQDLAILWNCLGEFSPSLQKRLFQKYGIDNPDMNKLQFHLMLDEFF
smiles,measurement,setting,value
Nc1ncnc2c1ncn2[C@@H]1O[C@H](COP(=O)(O)OP(=O)(O)OP(=O)(O)O)[C@@H](O)[C@H]1O [ATP],"X-ray crystal structure, 2.3-2.4 A",APH(3')-Ia [1],unambiguous additional density corresponding to the ATP molecule
Nc1nc2c(ncn2[C@@H]2O[C@H](COP(=O)(O)OP(=O)(O)OP(=O)(O)O)[C@@H](O)[C@H]2O)c(=O)[nH]1 [GTP],activity assay with kanamycin,APH(3')-Ia [2],indicating GTP is a superior substrate
"COc1cc2ncnc(Nc3cccc(Cl)c3)c2cc1OC [Tyrphostin AG 1478, N-(3-chlorophenyl)-6,7-dimethoxyquinazolin-4-amine]","X-ray crystal structure, 2.69-2.71 A",APH(3')-Ia [3],the inhibitor molecule was held in the NTP binding site through hydrophobic interactions
